Patent US20180352814A1 (priority 2015, published 2018)

Key:
Assay type in all cases: in vivo
[1] = test system: tomato late blight fungus (Phytophthora infestans); settings: 500 ppm foliage spray; tomato variety PATIO; inoculated 1 day after spraying
[2] = test system: soybean frogeye leaf spot (Cercospora sojina) fungus; assay: Test Example 15: Control Test on Soybean Frogeye Leaf Spot (Cercospora sojina); settings: 200 ppm foliage spray 5 days after inoculation; soybean cultivar TACHINAGAHA
Description: (§1) The non-treatment in Test Examples 5 to 20 means that foliage application of a mixture of a preparation containing the present compound and water was not performed.
Control Test on Soybean Frogeye Leaf Spot (Cercospora sojina)
Each of plastic pots was filled with soil and soybean (cultivar: TACHINAGAHA) was sowed and grown in a greenhouse for 13 days. Thereafter, an aqueous suspension containing spores of soybean frogeye leaf spot (Cercospora sojina) fungus was sprayed to inoculate the spores. After inoculation, the soybean was at first left to stand in a greenhouse at 23° C. in the daytime under high humidity condition for 4 days, and cultivated in a greenhouse at 23° C. for 1 day. Then, the present compound 11 formulated in accordance with the method mentioned in Formulation Example 6 was mixed with water so as to adjust the concentration to 200 ppm, and the mixture was sprayed over stems and leaves of the soybean so that it sufficiently adhered to the surface of the leaves of the soybean. After spraying, the soybean was air-dried and cultivated in a greenhouse at 24° C. during the day and 20° C. at night for 21 days, and then the area of lesion spots was investigated.

[3] = test system: cucumber powdery mildew fungus (Sphaerotheca fuliginea); assay: Test Example 20: Control Test on Cucumber Powdery Mildew (Sphaerotheca fuliginea); settings: 200 ppm foliage spray; cucumber cultivar SAGAMI HANJIRO; inoculated 1 day after spraying
Description: as §1
Control Test on Cucumber Powdery Mildew (Sphaerotheca fuliginea)
Each of plastic pots was filled with soil and cucumber (cultivar; SAGAMI HANJIRO) was sowed and grown in a greenhouse for 12 days. Then, the present compound 41 formulated in accordance with the method mentioned in Formulation Example 6 was mixed with water so as to adjust the concentration to 200 ppm, and the mixture was sprayed over stems and leaves of the cucumber so that it sufficiently adhered to the surface of the leaves of the cucumber. After spraying, the […] was air-dried. After the cucumber was left to stand in a greenhouse at 24° C. during the day and 20° C. at night for 1 day, the spores of the cucumber seedling (cultivar; SAGAMI HANJIRO) infected by cucumber powdery mildew fungus were sprinkling-inoculated. After inoculation, the cucumber was cultivated in a greenhouse at 24° C. during the day and 20° C. at night for 8 days, and then the area of lesion spots was investigated.

[4] = test system: soybean rust fungus (Phakopsora pachyrhizi); assay: Test Example 10: Control Test on Soybean Rust (Phakopsora pachyrhizi), spraying before inoculation; settings: 200 ppm foliage spray; soybean cultivar KUROSENGOKU; inoculated 4 days after spraying
Description: as §1
(§2) Control Test on Soybean Rust (Phakopsora pachyrhizi)
Each of plastic pots was filled with soil and soybean (cultivar: KUROSENGOKU) was sowed and grown in a greenhouse for 13 days. Then, the present compound 1 to 9, 11 to 21, 29 to 37, or 44 formulated in accordance with the method mentioned in Formulation Example 6 was mixed with water so as to adjust the concentration to 200 ppm, and the mixture was sprayed over stems and leaves so that it sufficiently adhered to the surface of the leaves of the soybean. After spraying, the soybean was air-dried. After 4 days, an aqueous suspension containing spores of soybean rust fungus was sprayed to inoculate the spores. After inoculation, the soybean was at first left to stand in a greenhouse at 23° C. in the daytime and 20° C. at night under high humidity condition for 1 day, and then cultivated in a greenhouse for 10 days, and the area of lesion spots was investigated. As a result, the area of lesion spots on the soybean treated with the present compound 1 to 9, 11 to 21, 29 to 37, or 44 was 30% or less of that on a non-treated soybean.

[5] = test system: soybean rust fungus (Phakopsora pachyrhizi); assay: Test Example 9: Control Test on Soybean Rust (Phakopsora pachyrhizi), spraying after inoculation; settings: 200 ppm foliage spray 3 days after inoculation; soybean cultivar KUROSENGOKU
Description: as §1, §2
Each of plastic pots was filled with soil and soybean (cultivar: KUROSENGOKU) was sowed and grown in a greenhouse for 10 days. Thereafter, an aqueous suspension containing spores of soybean rust fungus was sprayed to inoculate the spores. After inoculation, the soybean was at first left to stand in a greenhouse at 23° C. in the daytime and 20° C. at night under high humidity condition for 1 day and cultivated in a greenhouse at room temperature for 2 days. Then, the present compound 1 to 9, 11 to 23, 26 to 33, 35 to 41, or 44 formulated in accordance with the method mentioned in Formulation Example 6 was mixed with water so as to adjust the concentration to 200 ppm, and the mixture was sprayed over stems and leaves of the soybean so that it sufficiently adhered to the surface of the leaves of the soybean. After spraying, the soybean was air-dried and cultivated in a greenhouse for 8 days, and then the area of lesion spots was investigated.

CCOCCNC(=O)Oc1ccc(-c2noc(C(F)(F)F)n2)cc1 [compound 9]
area of lesion spots on the treated tomato relative to that on a non-treated tomato [1]: ≤ 30%

COCCN(C)C(=O)Oc1ccc(-c2noc(C(F)(F)F)n2)cc1F [compound 11]
area of lesion spots on the treated soybean relative to that on a non-treated soybean [2]: ≤ 30%

CC1(C(=O)Nc2ccc(-c3noc(C(F)(F)F)n3)cc2)CC1 [compound 41]
area of lesion spots on the treated cucumber relative to that on a non-treated cucumber [3]: ≤ 30%

O=C(Oc1ccc(-c2noc(C(F)(F)F)n2)cc1)C1CCCCC1 [compound 44]
area of lesion spots on the treated soybean relative to that on a non-treated soybean [4]: ≤ 30% | area of lesion spots on the treated soybean relative to that on a non-treated soybean [5]: ≤ 30%
